For assay [1], the target named is T1, pseudo-kinase domain (JH2, amino-acids 536-812) of human V617F mutant JAK2 (Homo sapiens, UniProt O60674, F794H/V617F/W659A/W777A).
T1 construct: pseudo-kinase domain (JH2, amino-acids 536-812 with 3 surface mutations W659A, W777A, F794H); purchased BPS Bioscience 79498; host or cells: baculovirus expression system
The assay can be described thus: JAK2 LanthaScreen JH2-V617F Binding Assay. The settings on record: 1 hour at 25° C. Put shortly:
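Biotinylated His-Avi-tagged JH2 protein was baculovirus-expressed and used at 0.26 nM. It was incubated with compound, 50 nM fluorescent JH2 tracer and 0.25 nM streptavidin-Tb for 1 h at 25 °C in pH 7.5 Tris buffer with MgCl2, BSA, DTT. Non-specific binding was defined with 2 mM ATP. IC50 came from four-parameter fits of TR-FRET signal.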

The target in assay [2] is T2, pseudo-kinase domain (JH2, amino-acids 536-812) of human Wild Type JAK2 (Homo sapiens, UniProt O60674, F794H/W659A/W777A).
T2 construct: pseudo-kinase domain (JH2, amino-acids 536-812 with 3 surface mutations W659A, W777A, F794H); purchased BPS Bioscience 79463; host or cells: baculovirus expression system
Description: JAK2 LanthaScreen JH2-WT Binding Assay. To be noted: 1 hour at 25° C. A digest of the protocol: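 IC50 values derive from four-parameter fits of LanthaScreen signal, measuring displacement of 50 nM fluorescent tracer from 0.145 nM biotinylated, baculovirus-expressed JH2 (536-812) detected by 0.25 nM streptavidin-Tb. Incubation lasts 1 hour at 25° C, pH 7.5.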

In assay [3] the target is T3, catalytic domain (JH1, amino acids 826-1132) of human JAK2 (Homo sapiens, UniProt O60674).
T3 construct: catalytic domain (JH1, amino acids 826-1132) of human JAK2; purchased Carna Biosciences 08-445-20N; host or cells: baculovirus expression system
The assay can be described thus: JAK2 LanthaScreen JH1 Binding Assay. The settings on record: 2 hours at 25° C. Put shortly:
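FLAG-tagged biotinylated JAK2 JH1 (1.5 nM) incubated with compounds, 50 nM fluorescent tracer and 0.5 nM streptavidin-Tb in Tris pH 7.5 buffer with MgCl2, BSA, DTT, 2 h at 25 °C.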

The target in assay [4] is T4, catalytic domain (JH1, amino acids 808-1132) of human JAK2 (Homo sapiens, UniProt O60674).
T4 construct: catalytic domain (JH1, amino acids 808-1132) of human JAK2; His (N); purchased BPS Bioscience 40450; host or cells: baculovirus expression system
Description: JAK2 HTRF Enzyme Activity Assay. To be noted: ATP 30 μM, read-out: ENZ 30UMATP. Format: biochemical. Put shortly: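 His-tagged JAK2 JH1 from baculovirus, 0.015 nM, incubated with compound, ATP at 30 μM or 1 mM and 500 nM biotinylated peptide, pH 7.5, 60 min at 25° C. HTRF read-out via Eu-anti-phosphotyrosine and streptavidin-APC after EDTA stop; IC50 from four-parameter dose-response fit.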
A general note: In TR-FRET formats the signal depends on donor and acceptor labels being close together.

The text below walks through data of patent US11958861B2, “Spirocyclic lactams as JAK2 V617F inhibitors” (Incyte Corporation, priority 2021, dated 2024).

Where a name gives a salt, the structure may show the parent alone. Bounds are passed on as bounds.

T4 sequence (O60674 808-1132): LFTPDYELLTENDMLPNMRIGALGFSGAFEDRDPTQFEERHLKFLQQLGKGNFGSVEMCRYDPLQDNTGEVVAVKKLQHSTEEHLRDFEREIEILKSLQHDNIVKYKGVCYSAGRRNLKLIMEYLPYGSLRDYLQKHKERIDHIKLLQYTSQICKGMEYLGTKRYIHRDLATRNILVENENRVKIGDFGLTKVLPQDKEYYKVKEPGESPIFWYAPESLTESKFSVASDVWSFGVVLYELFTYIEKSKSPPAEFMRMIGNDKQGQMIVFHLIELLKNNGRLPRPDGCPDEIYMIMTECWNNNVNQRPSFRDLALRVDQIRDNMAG
T2 sequence (O60674 536-812 W659A/W777A/F794H): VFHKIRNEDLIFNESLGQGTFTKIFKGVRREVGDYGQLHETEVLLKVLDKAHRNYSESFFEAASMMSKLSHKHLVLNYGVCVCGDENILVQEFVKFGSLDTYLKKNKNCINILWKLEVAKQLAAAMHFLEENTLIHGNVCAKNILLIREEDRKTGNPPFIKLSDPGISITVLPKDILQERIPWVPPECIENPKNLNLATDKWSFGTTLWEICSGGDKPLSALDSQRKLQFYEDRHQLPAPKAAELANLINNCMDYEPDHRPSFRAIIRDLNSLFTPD
T3 sequence (O60674 826-1132): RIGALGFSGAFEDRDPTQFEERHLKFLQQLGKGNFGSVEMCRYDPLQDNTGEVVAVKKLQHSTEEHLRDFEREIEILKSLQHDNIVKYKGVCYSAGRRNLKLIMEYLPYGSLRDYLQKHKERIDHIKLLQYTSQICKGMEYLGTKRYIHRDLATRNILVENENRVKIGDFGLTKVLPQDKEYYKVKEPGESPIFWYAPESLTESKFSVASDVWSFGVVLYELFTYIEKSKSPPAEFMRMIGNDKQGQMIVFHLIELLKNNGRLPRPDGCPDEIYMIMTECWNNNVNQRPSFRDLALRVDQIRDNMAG
T1 sequence (O60674 536-812 V617F/W659A/W777A/F794H): as the sequence (O60674 536-812 W659A/W777A/F794H) above, with V82F counted along it

For the compound `O=C(O)C(F)(F)F.[2H]C([2H])([2H])n1ncc2cc(-c3c(-c4cnn(CC(C)(C)OC)c4)[nH]c4ncc5c(c34)C3(CC4(CN(S(=O)(=O)CC)C4)C3)C(=O)N5C)ccc21` [Example 96, 1-(Ethylsulfonyl)-2″-(1-(2-methoxy-2-methylpropyl)-1H-pyrazol-4-yl)-6″-methyl-1″-(1-(methyl-d3)-1H-indazol-5-yl)-3″,6″-dihydro-7″H-dispiro[azetidine-3,1′-cyclobutane-3′,8″-dipyrrolo[2,3-b:3′,2′-d]pyridin]-7″-one, trifluoroacetate salt], the IC50 was at most 100 nM in assay [1], at most 100 nM in assay [2], above 2500 nM in assay [3] and above 2500 nM in assay [4].
For the compound `CCS(=O)(=O)N1CC2(C1)CC1(C2)C(=O)N(C)c2cnc3[nH]c(-c4cnn(CC5CCOCC5)c4)c(-c4ccc5c(cnn5C)c4)c3c21` [Example 97, 1-(Ethylsulfonyl)-6″-methyl-1″-(1-methyl-1H-indazol-5-yl)-2″-(1-((tetrahydro-2H-pyran-4-yl)methyl)-1H-pyrazol-4-yl)-3″,6″-dihydro-7″H-dispiro[azetidine-3,1′-cyclobutane-3′,8″-dipyrrolo[2,3-b:3′,2′-d]pyridin]-7″-one, trifluoroacetate salt], the IC50 in assay [1] was at most 100 nM; in assay [2], at most 100 nM; in assay [3], 1250 to 2500 nM; in assay [4], 1250 to 2500 nM.
